Columns and labels:
[1] = test system: NF-κB pathway (SEAP) in THP1-Dual cells; assay: THP-1 Dual cell SEAP assay (L18-MDP stimulated); type: cell-based; conditions: Homo sapiens, THP1-Dual, read-out: NF-κB THP1 IC50 bin
Method in brief: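 IC50 values derive from non-linear regression of % inhibition, calculated against DMSO/L18-MDP-treated wells after media-only subtraction. NF-κB SEAP activity was read at OD 620-655 nm (QUANTI-Blue, 2 h, 37 °C) from supernatants of THP1-Dual cells. Cells had been compound-treated 30 min before overnight (20-24 h) stimulation with 10 ng/mL final L18-MDP.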

[2] = biological target: T1, binding of His-XIAP(BIR2)-avi fusion protein to GST-RIPK2 fusion protein (RIPK2/XIAP) (Homo sapiens, UniProt O43353); assay: RIPK2-XIAP binding competition PPI assay (TR-FRET); conditions: RIPK2/XIAP binding competition PPI assay; for Emax: Amax, read-out: PPI Amax bin; for IC50: read-out: PPI IC50 bin
T1 construct: made in house; host or cells: baculovirus infected Sf9 cells
T1 sequence (O43353 1-310 limits assumed): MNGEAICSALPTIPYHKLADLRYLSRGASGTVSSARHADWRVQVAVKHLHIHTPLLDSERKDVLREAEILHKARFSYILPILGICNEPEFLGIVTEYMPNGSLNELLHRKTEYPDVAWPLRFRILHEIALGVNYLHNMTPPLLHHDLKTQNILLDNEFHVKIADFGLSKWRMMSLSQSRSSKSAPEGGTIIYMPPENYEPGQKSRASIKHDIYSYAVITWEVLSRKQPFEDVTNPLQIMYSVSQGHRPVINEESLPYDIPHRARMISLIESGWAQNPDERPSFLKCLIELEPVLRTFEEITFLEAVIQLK
Method in brief: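 Compounds (in DMSO, 100-fold stock) incubated 120 min at 23 °C with 1 nM GST-RIPK2 (aa 1-310) and 25 nM His-XIAP(BIR2 aa 152-231)-avi, plus anti-His-XL665 and anti-GST-Tb, in pH 7.5 Tris buffer. Read-out: 665/520 nm emission ratio. Normalized to no-inhibitor (0%) and 50 nM GSK583 (−100%); Amax binned A–D.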

[3] = biological target: T2, GST-RIPK2 fusion protein (human RIPK2, amino acids 1-310) (Homo sapiens, UniProt O43353); assay: RIPK2 binding competition assay (TR-FRET, Tracer 199 displacement); conditions: 10 nM Tracer 199, 1 nM GST-RIPK2, read-out: RIPK2 IC50
T2 construct: made in house; host or cells: baculovirus infected Sf9 cells
T2 sequence (O43353 1-310): as the sequence (O43353 1-310 limits assumed) above
Method in brief: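 IC50 derived from the TR-FRET emission ratio (665/620 nm, 337 nm excitation), normalized with no-inhibitor and no-enzyme controls. Incubation 45 min at 22 °C, pH 7.5 Tris buffer, with final 10 nM tracer, 1 nM Sf9-expressed GST-RIPK2 fragment (aa 1-310) and 0.5 nM Tb-labelled anti-GST.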

Structure (SMILES) | IC50 [1] [nM] | Emax [2] [%] | IC50 [2] [nM] | IC50 [3] [nM]
CC(C)(C)S(=O)(=O)c1cn2c(-c3cc(F)c(N)nc3F)cnc2cc1OCC1(O)COC1 [Example 38, 3-(((3-(6-amino-2,5-difluoropyridin-3-yl)-6-(tert-butylsulfonyl)imidazo[1,2-a]pyridin-7-yl)oxy)methyl)oxetan-3-ol] | 50 to 250 | > 80 | 2.5 to 20 | 1 to 2.5
C[C@@H](CO)COc1cc2ncc(-c3cc(Cl)c(N)nc3F)n2cc1S(=O)(=O)C(C)(C)C [Example 201, (S)-3-((3-(6-amino-5-chloro-2-fluoropyridin-3-yl)-6-(tert-butylsulfonyl)imidazo [1,2-a]pyridin-7-yl)oxy)-2-methylpropan-1-ol] | 50 to 250 | > 80 | 1 to 2.5 | 1 to 2.5
CC(C)(C)S(=O)(=O)c1cc2c(-c3cc4cc[nH]c4nc3F)cnn2cc1OCCO [Example 215, 2-((5-(tert-butylsulfonyl)-3-(6-fluoro-1H-pyrrolo[2,3-b]pyridin-5-yl)pyrazolo[1,5-a]pyridin-6-yl)oxy)ethan-1-ol] | < 50 | > 80 | < 1 | < 1
COc1cc2ncc(-c3cc(F)c(N)nc3F)n2cc1S(=O)(=O)N1CCN(C)CC1 [Example 165, 3,6-difluoro-5-(7-methoxy-6-((4-methylpiperazin-1-yl)sulfonyl)imidazo[1,2-a]pyridin-3-yl)pyridin-2-amine] | > 1000 | > 80 | > 20 | > 20
COc1cc2ncc(-c3cc(F)c(N)nc3F)n2cc1C1(O)CCOCC1 [Example 75, 4-(3-(6-amino-2,5-difluoropyridin-3-yl)-7-methoxyimidazo[1,2-a]pyridin-6-yl)tetrahydro-2H-pyran-4-ol] | > 1000 | > 80 | > 20 | > 20
COc1c(F)cc(-c2cnc3cc(OCCO)c(S(=O)(=O)C(C)(C)C)cn23)cc1NS(C)(=O)=O [Example 223, N-(5-(6-(tert-butylsulfonyl)-7-(2-hydroxyethoxy)imidazo [1,2-a]pyridin-3-yl)-3-fluoro-2-methoxyphenyl) methanesulfonamide] | 50 to 250 | 55 to 80 | < 1 | < 1
COc1c(F)cc(-c2cnc3cc(OC[C@@H](C)CO)c(S(=O)(=O)C(C)(C)C)cn23)cc1NS(C)(=O)=O [Example 182, (S)-N-(5-(6-(tert-butylsulfonyl)-7-(3-hydroxy-2-methylpropoxy)imidazo[1,2-a]pyridin-3-yl)-3-fluoro-2-methoxyphenyl)methanesulfonamide] | < 50 | 55 to 80 | < 1 | < 1
CC(C)(C)S(=O)(=O)c1cn2c(-c3cc(F)c(N)nc3F)cnc2cc1OCC(O)CO (centres unmarked) [Example 55, 3-((3-(6-amino-2,5-difluoropyridin-3-yl)-6-(tert-butylsulfonyl)imidazo[1,2-a]pyridin-7-yl)oxy)propane-1,2-diol] | 250 to 1000 | > 80 | 2.5 to 20 | 2.5 to 20
COc1cc2ncc(-c3cccc(NS(=O)(=O)C4CCOC4)c3)n2cc1S(=O)(=O)C(C)(C)C (centres unmarked) [Example 148, N-(3-(6-(tert-butylsulfonyl)-7-methoxyimidazo[1,2-a]pyridin-3-yl)phenyl)tetrahydrofuran-3-sulfonamide] | > 1000 | > 80 | 2.5 to 20 | 2.5 to 20
COc1cc2ncc(-c3cnc4cc(N)ccc4c3)n2cc1S(=O)(=O)C(C)(C)C [Example 92, 3-(6-(tert-butylsulfonyl)-7-methoxyimidazo[1,2-a]pyridin-3-yl)quinolin-7-amine] | > 1000 | 30 to 55 | > 20 | > 20
COc1cc2ncc(-c3ccc4sc(N)nc4c3)n2cc1S(=O)(=O)C(C)(C)C [Example 105, 5-(6-(tert-butylsulfonyl)-7-methoxyimidazo[1,2-a]pyridin-3-yl)benzo[d]thiazol-2-amine] | > 1000 | 30 to 55 | > 20 | > 20
CC1(C)CNc2ncc(-c3cnc4cc(OCCO)c(S(=O)(=O)C(C)(C)C)cn34)cc21 [Example 230, 2-((6-(tert-butylsulfonyl)-3-(3,3-dimethyl-2,3-dihydro-1H-pyrrolo[2,3-b]pyridin-5-yl)imidazo[1,2-a]pyridin-7-yl)oxy)ethan-1-ol] | > 1000 | < 30 | > 20 | > 20
COc1cc2ncc(-c3cc(F)c(OC)c4[nH]c(CO)nc34)n2cc1S(=O)(=O)C(C)(C)C [Example 119, (4-(6-(tert-butylsulfonyl)-7-methoxyimidazo[1,2-a]pyridin-3-yl)-6-fluoro-7-methoxy-1H-benzo[d]imidazol-2-yl)methanol] | < 50 | 55 to 80 | < 1 | < 1
CC(N)COc1cc2ncc(-c3cc(Cl)c(N)nc3F)n2cc1S(=O)(=O)C(C)(C)C (centres unmarked) [Example 239, 5-(7-(2-aminopropoxy)-6-(tert-butylsulfonyl)imidazo [1,2-a]pyridin-3-yl)-3-chloro-6-fluoropyridin-2-amine] | 250 to 1000 | > 80 | 2.5 to 20 | 2.5 to 20
COc1cc2ncc(-c3ccc4nc(N)sc4c3)n2cc1S(=O)(=O)C(C)(C)C [Example 95, 6-(6-(tert-butylsulfonyl)-7-methoxyimidazo[1,2-a]pyridin-3-yl)benzo[d]thiazol-2-amine] | > 1000 | < 30 | > 20 | 2.5 to 20
CC(C)(C)S(=O)(=O)c1cn2c(-c3ccc4ccnn4c3)cnc2cc1OCCO [Example 209, 2-((6-(tert-butylsulfonyl)-3-(pyrazolo[1,5-a]pyridin-6-yl)imidazo[1,2-a]pyridin-7-yl)oxy)ethan-1-ol] | > 1000 | 30 to 55 | > 20 | > 20
CN(C)CCOc1cc2ncc(-c3cc(F)c(N)nc3F)n2cc1S(=O)(=O)C(C)(C)C [Example 20, 5-(6-(tert-butylsulfonyl)-7-(2-(dimethylamino)ethoxy)imidazo[1,2-a]pyridin-3-yl)-3,6-difluoropyridin-2-amine] | > 1000 | > 80 | > 20 | 2.5 to 20
CCCS(=O)(=O)Nc1cc(-c2cnc3cc(OC)c(S(=O)(=O)C4(C)CC4)cn23)cc(OC)c1OC [Example 67, N-(2,3-dimethoxy-5-(7-methoxy-6-((1-methylcyclopropyl)sulfonyl)imidazo[1,2-a]pyridin-3-yl)phenyl)propane-1-sulfonamide] | < 50 | > 80 | < 1 | < 1
COc1cc2ncc(-c3cc(F)c(OC)c(NS(=O)(=O)c4cnn(C)c4)c3)n2cc1S(=O)(=O)C(C)(C)C [Example 135, N-(5-(6-(tert-butylsulfonyl)-7-methoxyimidazo[1,2-a]pyridin-3-yl)-3-fluoro-2-methoxyphenyl)-1-methyl-1H-pyrazole-4-sulfonamide] | < 50 | > 80 | < 1 | < 1
OCCCNc1cc(-c2cnn3ccc(C(F)(F)F)cc23)cc(F)n1 [Example 6, 3-((6-fluoro-4-(5-(trifluoromethyl)pyrazolo[1,5-a]pyridin-3-yl)pyridin-2-yl)amino)propan-1-ol] | 50 to 250 | < 30 | > 20 | 2.5 to 20

Reference: patent US20260137706A1, “METHODS OF TREATING INFLAMMATORY DISEASES” (INTERLINE THERAPEUTICS, INC., priority 2023, published 2026)
